Where two headings read alike, the source gives them in different places.
Assays:
[1] = at 20° C.; cited from earlier work
[2] = acid dissociation constant (pKa) of the monomers
[3] = acid dissociation constant of each component

pKa [2] | Compound | Water solubility [1] | pKa [2, 3]
4.66 | C=C(C)C(=O)O [MAA, methacrylic acid] | 9.7 g/100 mL | 
-1.08 | C=CC(=O)N1CCOCC1 [ACMO, N-acryloylmorpholine] |  | 
 | C=CC(=O)N(CC)CC [DEAA, diethylacrylamide] | Soluble | −0.77
 | C=CC(=O)NCCCN(C)C [DMAPAA, dimethylaminopropylacrylamide] | Soluble | 14.88
 | 2-acryloyloxyethyl succinic acid [HOA-MS] |  | 4.35
-0.34 | C=CN1CCCC1=O [NVP, N-vinylpyrrolidone] | Miscible | 
 | C=C(C)C(=O)OC [MMA, methyl methacrylate] | 1.6 g/100 mL | 

Compound | pKa [2] | Water solubility [1] | pKa [2, 3]
C=CC(=O)NC(C)C [NIPAM, N-isopropylacrylamide] | 14.8 | <0.1 g/100 mL | 
